Biological target: bovine cardiac myosin (Bos taurus (Bovine), UniProt Q9BE39)
Assay: Myosin inhibitory potency: PK/LDH-coupled ATPase assay on bovine skinned cardiac myofibrils
Format: biochemical
Settings: pCa=6.25, 50 μM ATP, 25° C., read-out: myosin inhibition activity IC50
Description: The average rates of ATPase inhibition, and the IC50 values are determined by Victor Nivo multimode plate reader (PerkinElmer, USA).
As to the assays background, a biochemical assay couples the ATPase activity of bovine cardiac myosin to an enzymatic coupling system consisting of pyruvate kinase and lactate dehydrogenase (PK/LDH) and monitoring the absorbance decrease of NADH (at 340 nm) as a function of time to measure the inhibitory ability of small molecule agents. In the assay, PK converts ADP (Adenosine diphosphate) to ATP (adenosine triphosphate) by converting PEP (phosphoenolpyruvate) to pyruvate. Pyruvate is then converted to lactate by LDH by converting NADH (nicotinamide adenine dinucleotide) to NAD (oxidized nicotinamide adenine dinucleotide).
In our experiments, bovine skinned cardiac myofibrils were isolated from the frozen bovine left ventricle as myosin's source in the ATPase assay. The calcium concentration that achieves a 50% (pCa50 or pCa=6.25) activation of the myofibril system was chosen as the final condition for assessing the activation activity according to the literature (DOI: 10.1074/jbc.M117.776815). Myofibrils ATPase activity was measured in a buffered solution containing 12 mM PIPES (piperazine-N, N′-bis(2-ethane sulfonic acid) and 2 mM magnesium chloride at pH 6.8 (PM12 buffer). Final assay conditions were 1 mg/mL of bovine cardiac myofibrils, 1:20 of stock PK/LDH (Sigma-Aldrich, Cat No. P0294-5X5ML), 50 μM ATP, 1 mM DTT (dithiothreitol), 0.75 mM NADH, 1.5 mM PEP at pCa50 (pCa=6.25). Compounds were dissolved in DMSO (dimethyl sulfoxide). Serial dilution of compounds was created such that the final desired concentration of compound would be achieved in a volume of 150 μL with a fixed DMSO concentration of 2% (v/v). 75 μL of a solution containing bovine cardiac myofibrils, PK/LDH, and calcium were added to a 96 well plate for a 7 point dose-response. In some circumstances, 10 point-response was used to repeat the ATPase assays on compounds of interest. Compounds were added to the myofibrils solution and incubated for 5 minutes. The enzymatic reaction was started with the addition of 75 μL of a solution containing ATP, PEP, NADH, compounds, and calcium. The ATPase activity was measured by reading absorbance at 340 nm in a PerkinElmer Victor Nivo plate reader at 25° C. in kinetic mode for 15 minutes using clear bottom plates. The slopes of the absorbance changes as a function of time for the first 10 minutes were normalized to slopes on the control wells containing all reagents, including DMSO, but without compounds. This normalized rate was then plotted as a function of small molecule concentration in GraphPad prism 9. The data were fitted to a four-parameter fit, and IC50 was calculated using Graphpad Prism 9.

bovine cardiac myosin, sequence (Q9BE39 whole entry): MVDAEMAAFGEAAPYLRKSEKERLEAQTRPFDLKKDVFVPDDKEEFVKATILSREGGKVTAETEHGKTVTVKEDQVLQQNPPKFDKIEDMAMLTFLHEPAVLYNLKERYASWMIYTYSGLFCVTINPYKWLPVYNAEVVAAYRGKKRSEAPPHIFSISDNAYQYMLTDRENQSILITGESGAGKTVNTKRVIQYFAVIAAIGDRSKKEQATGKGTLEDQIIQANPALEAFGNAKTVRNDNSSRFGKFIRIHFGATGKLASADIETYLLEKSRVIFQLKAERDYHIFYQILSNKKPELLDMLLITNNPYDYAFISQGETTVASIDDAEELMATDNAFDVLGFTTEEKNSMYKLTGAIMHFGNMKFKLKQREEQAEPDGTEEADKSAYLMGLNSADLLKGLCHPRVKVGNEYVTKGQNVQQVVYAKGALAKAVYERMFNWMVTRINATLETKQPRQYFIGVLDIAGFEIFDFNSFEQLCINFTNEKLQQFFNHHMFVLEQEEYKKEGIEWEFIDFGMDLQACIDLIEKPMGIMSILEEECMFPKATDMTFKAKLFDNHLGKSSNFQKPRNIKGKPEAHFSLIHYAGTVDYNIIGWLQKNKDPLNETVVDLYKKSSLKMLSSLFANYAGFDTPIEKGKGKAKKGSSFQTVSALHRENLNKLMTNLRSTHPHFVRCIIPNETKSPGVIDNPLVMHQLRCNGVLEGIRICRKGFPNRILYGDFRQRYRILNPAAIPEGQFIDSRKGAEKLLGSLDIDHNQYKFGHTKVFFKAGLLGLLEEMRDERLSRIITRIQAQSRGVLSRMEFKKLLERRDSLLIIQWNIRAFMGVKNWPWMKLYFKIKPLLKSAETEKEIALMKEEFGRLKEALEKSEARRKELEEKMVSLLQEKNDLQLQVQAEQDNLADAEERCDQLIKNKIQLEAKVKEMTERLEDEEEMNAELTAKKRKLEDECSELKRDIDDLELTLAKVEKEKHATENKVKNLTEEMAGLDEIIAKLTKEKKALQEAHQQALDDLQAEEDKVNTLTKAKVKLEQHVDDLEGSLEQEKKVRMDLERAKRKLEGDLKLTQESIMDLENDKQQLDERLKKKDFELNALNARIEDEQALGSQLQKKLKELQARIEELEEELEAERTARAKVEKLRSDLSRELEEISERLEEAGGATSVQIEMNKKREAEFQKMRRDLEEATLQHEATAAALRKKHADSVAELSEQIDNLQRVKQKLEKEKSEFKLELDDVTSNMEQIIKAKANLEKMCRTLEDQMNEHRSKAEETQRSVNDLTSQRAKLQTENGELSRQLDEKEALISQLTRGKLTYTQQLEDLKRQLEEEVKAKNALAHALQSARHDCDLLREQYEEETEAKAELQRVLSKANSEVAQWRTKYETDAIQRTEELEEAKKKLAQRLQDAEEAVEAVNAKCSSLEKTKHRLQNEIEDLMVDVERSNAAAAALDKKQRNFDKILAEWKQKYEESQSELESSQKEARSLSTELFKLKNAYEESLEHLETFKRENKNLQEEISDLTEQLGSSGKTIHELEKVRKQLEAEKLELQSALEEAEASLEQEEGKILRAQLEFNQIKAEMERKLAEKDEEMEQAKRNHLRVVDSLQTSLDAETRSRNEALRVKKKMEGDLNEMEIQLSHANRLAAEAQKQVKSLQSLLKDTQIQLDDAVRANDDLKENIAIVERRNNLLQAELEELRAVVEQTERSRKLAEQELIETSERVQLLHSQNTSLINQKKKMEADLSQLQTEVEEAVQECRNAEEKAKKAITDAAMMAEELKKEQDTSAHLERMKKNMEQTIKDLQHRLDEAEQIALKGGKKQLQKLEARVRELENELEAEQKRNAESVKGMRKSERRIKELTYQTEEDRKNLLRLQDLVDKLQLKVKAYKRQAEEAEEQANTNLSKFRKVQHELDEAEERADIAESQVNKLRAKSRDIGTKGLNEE
bovine cardiac myosin, sequence (P85100 whole entry partner): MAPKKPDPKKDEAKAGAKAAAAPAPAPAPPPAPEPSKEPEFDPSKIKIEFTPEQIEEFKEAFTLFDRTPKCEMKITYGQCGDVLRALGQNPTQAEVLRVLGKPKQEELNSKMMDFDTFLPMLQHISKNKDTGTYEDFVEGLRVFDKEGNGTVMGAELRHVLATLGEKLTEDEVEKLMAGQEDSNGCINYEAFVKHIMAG
bovine cardiac myosin, sequence (Q3SZE5 whole entry partner): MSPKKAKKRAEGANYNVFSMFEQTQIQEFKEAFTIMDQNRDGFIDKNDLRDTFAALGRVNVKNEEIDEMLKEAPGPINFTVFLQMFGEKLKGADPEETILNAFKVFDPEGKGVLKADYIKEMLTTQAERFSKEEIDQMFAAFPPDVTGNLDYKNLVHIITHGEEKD

Row | Structure (SMILES) | IC50
1 | CC(Nc1nc(=O)n(C2CCOCC2)c(=O)[nH]1)c1ccc(CO)cc1 (stereo not drawn) [Example 140] | 12.3 µM
2 | CO[C@@H]1COCC[C@H]1n1c(=O)nc(N[C@@H](C)c2cc(C)ccc2F)[nH]c1=O [Example 283] | 1.09 µM
3 | C[C@H](Nc1nc(=O)n(C2CCOCC2)c(=O)[nH]1)c1cccc(-n2cccn2)c1 [Example 199] | 2.1 µM
4 | C[C@H](Nc1nc(=O)n(C2CCOCC2)c(=O)[nH]1)c1cccc(N2CC(C)(C)C2)c1 [Example 214] | 3.4 µM
5 | CC(O)c1cccc([C@@H](Nc2nc(=O)n(C3CCOCC3)c(=O)[nH]2)C(F)F)c1 (stereo partly drawn) [Example 266] | 1.98 µM
6 | C[C@@H](Nc1nc(=O)n(C2CCOCC2)c(=O)[nH]1)c1ccc2c(c1)OC(F)(F)O2 [Example 318] | 1.05 µM
7 | CC(C)n1c(=O)nc(NC(C2CCCCC2)C2CC2)[nH]c1=O (stereo not drawn) [Example 69] | 8.43 µM
8 | Cc1ccc(C(C)Nc2nc(=O)n(C3CCOCC3)c(=O)[nH]2)cc1 (stereo not drawn) [Example 134] | 3.64 µM
9 | C[C@H](Nc1nc(=O)n(C2CCOCC2)c(=O)[nH]1)c1cccc(-c2cccnc2)c1 [Example 222] | 2.05 µM
10 | Cc1ccccc1C(C)Nc1nc(=O)n(C2CCNCC2)c(=O)[nH]1 (stereo not drawn) [Example 189] | 6.72 µM
11 | C[C@H](O)c1cccc([C@H](C)Nc2nc(=O)n(C3CCOCC3)c(=O)[nH]2)c1 [Example 344] | 0.55 µM
12 | C[C@H](Nc1nc(=O)n(C2CCOCC2)c(=O)[nH]1)c1cc(C(F)(F)F)cc(C(F)(F)F)c1 [Example 196] | 2.67 µM
13 | Cc1cc([C@H](C)Nc2nc(=O)n([C@H]3CCOC[C@H]3F)c(=O)[nH]2)ccc1F [Example 297] | 1.59 µM
14 | CCc1ccc([C@H](C)Nc2nc(=O)n(C3CCOCC3)c(=O)[nH]2)cc1 [Example 186] | 0.74 µM
15 | CO[C@H]1COCC[C@@H]1n1c(=O)nc(N[C@@H](C)c2cccc(C)c2)[nH]c1=O [Example 347] | 2.33 µM
16 | C[C@H](Nc1nc(=O)n(CC(F)(F)F)c(=O)[nH]1)C1CCCCC1 [Example 16] | 0.69 µM
17 | CC(Nc1nc(=O)n(C2CCNCC2)c(=O)[nH]1)c1ccc(F)cc1 (stereo not drawn) [Example 188] | 4.41 µM
18 | CC(Nc1nc(=O)n(C2CCNCC2)c(=O)[nH]1)c1cccc(C(F)(F)F)c1 (stereo not drawn) [Example 192] | 5.81 µM
19 | Cc1nccn1-c1cccc([C@H](C)Nc2nc(=O)n(C3CCOCC3)c(=O)[nH]2)c1 [Example 203] | 2.07 µM
20 | C[C@H](Nc1nc(=O)n(C2CCOCC2)c(=O)[nH]1)c1cccc(F)c1F [Example 170] | 1.52 µM
21 | C[C@H](Nc1nc(=O)n(C2CCOCC2)c(=O)[nH]1)c1ccc2c(c1)OC(F)(F)O2 [Example 298] | 0.88 µM
22 | C[C@H](Nc1nc(=O)n(-c2ccccn2)c(=O)[nH]1)C1CCCCC1 [Example 57] | 7.4 µM

Row | Structure (SMILES) | IC50
23 | C[C@H](Nc1nc(=O)n(C2CCOCC2)c(=O)[nH]1)c1cccc(C(O)C2CC2)c1 (stereo partly drawn) [Example 250] | 4.03 µM
24 | Cc1ccccc1-c1cccc([C@H](C)Nc2nc(=O)n(C3CCOCC3)c(=O)[nH]2)c1 [Example 225] | 0.82 µM
25 | Cc1cccc([C@H](C)Nc2nc(=O)n(C3CCN(C(C)C)CC3)c(=O)[nH]2)c1 [Example 37] | 1.29 µM
26 | Cc1cc([C@H](C)Nc2nc(=O)n([C@@H]3CCOC[C@@H]3F)c(=O)[nH]2)ccc1F [Example 296] | 0.86 µM
27 | CC(Nc1nc(=O)n(C2CCOCC2)c(=O)[nH]1)c1ccccc1O (stereo not drawn) [Example 101] | 10.6 µM
28 | CC(C)n1c(=O)nc(N[C@H](c2ccc(F)cc2F)C(F)F)[nH]c1=O [Example 262] | 2.96 µM
29 | C[C@H](Nc1nc(=O)n(C2CCOCC2)c(=O)[nH]1)c1cccc([C@@H](O)C(F)(F)F)c1 [Example 346] | 2.58 µM
30 | C[C@H](Nc1nc(=O)n(C2CCNC(=O)C2)c(=O)[nH]1)C1CCCCC1 (stereo partly drawn) [Example 22] | 13.2 µM
31 | C[C@H](Nc1nc(=O)n(C2CCOCC2)c(=O)[nH]1)c1cccc(C2=CCOCC2)c1 [Example 208] | 1.6 µM
32 | CC(Nc1nc(=O)n(C2CCOCC2)c(=O)[nH]1)c1ccc2c(c1)OC(F)(F)O2 (stereo not drawn) [Example 148] | 1.14 µM
33 | C[C@H](Nc1nc(=O)n([C@H]2CC[C@H](O)CC2)c(=O)[nH]1)C1CCCCC1 [Example 238] | 4.28 µM
34 | Cc1cccc([C@H](C)Nc2nc(=O)n(C3CCOC3)c(=O)[nH]2)c1 (stereo partly drawn) [Example 95] | 7.32 µM
35 | C[C@H](Nc1nc(=O)n(C2CCC(O)C2)c(=O)[nH]1)C1CCCCC1 (stereo partly drawn) [Example 232] | 8.35 µM
36 | CC(Nc1nc(=O)n(C2CCOCC2)c(=O)[nH]1)c1cccc(F)c1 (stereo not drawn) [Example 122] | 3.48 µM
37 | C[C@H](Nc1nc(=O)n(C2CCOCC2)c(=O)[nH]1)c1ccc(C(F)F)cc1 [Example 157] | 1 µM
38 | Cc1cn(-c2cccc([C@H](C)Nc3nc(=O)n(C4CCOCC4)c(=O)[nH]3)c2)cn1 [Example 205] | 3.84 µM
39 | Cc1cccc([C@H](C)Nc2nc(=O)n(C3CCCC3)c(=O)[nH]2)c1 [Example 94] | 1.75 µM
40 | Cc1cccc([C@H](CO)Nc2nc(=O)n(C3CCOCC3)c(=O)[nH]2)c1 [Example 317] | 2.85 µM
41 | CC(Nc1nc(=O)n(C2CCOCC2)c(=O)[nH]1)c1cccc(C(F)(F)F)c1 (stereo not drawn) [Example 130] | 4.7 µM
42 | CC(O)c1cccc([C@@H](Nc2nc(=O)n(C(C)C)c(=O)[nH]2)C(F)F)c1 (stereo partly drawn) [Example 267] | 0.41 µM
43 | C[C@H](Nc1nc(=O)n(C2(C)CCCC2)c(=O)[nH]1)C1CCCCC1 [Example 90] | 8.72 µM
44 | Cc1cc([C@H](C)Nc2nc(=O)n(C3CCOCC3)c(=O)[nH]2)ccc1Cl [Example 330] | 1.08 µM

Row | Structure (SMILES) | IC50
45 | Cc1cccc([C@@H](Nc2nc(=O)n(C3CCOCC3)c(=O)[nH]2)C2CC2)c1 [Example 335] | 0.62 µM
46 | COC(=O)N1CCC(n2c(=O)nc(N[C@@H](C)c3cccc(C)c3)[nH]c2=O)CC1 [Example 242] | 1.23 µM
47 | C[C@H](Nc1nc(=O)n([C@H](C)C(F)(F)F)c(=O)[nH]1)c1cccc(F)c1 [Example 178] | 3.32 µM
48 | C[C@H](Nc1nc(=O)n(C2CCOCC2)c(=O)[nH]1)c1cccc(-c2cc[nH]n2)c1 [Example 227] | 1.67 µM
49 | C[C@H](Nc1nc(=O)n(C2CCOCC2)c(=O)[nH]1)c1cccc(C(C)(C)C#N)c1 [Example 276] | 0.15 µM
50 | C[C@H](Nc1nc(=O)n(C2CCOCC2)c(=O)[nH]1)c1cccc(C2CCN(C(=O)OC(C)(C)C)CC2)c1 [Example 211] | 1.31 µM
51 | CCC(Nc1nc(=O)n(C2CCOCC2)c(=O)[nH]1)c1cccc(C)c1 (stereo not drawn) [Example 292] | 0.91 µM
52 | C[C@H](Nc1nc(=O)n(C2CCOCC2)c(=O)[nH]1)c1cccc(-c2ccccc2F)c1 [Example 224] | 0.7 µM
53 | C[C@H](Nc1nc(=O)n(C2CCN(C3CC3)CC2)c(=O)[nH]1)C1CCCCC1 [Example 32] | 3.04 µM
54 | C[C@H](Nc1nc(=O)n([C@H](C)C(F)(F)F)c(=O)[nH]1)c1ccc(OC(F)(F)F)cc1 [Example 174] | 2.82 µM
55 | CC(Nc1nc(=O)n(C2CCOCC2)c(=O)[nH]1)c1ccc(C2CC2)cc1 (stereo not drawn) [Example 137] | 4.93 µM
56 | O=c1nc(NCCC2CCCCC2)[nH]c(=O)n1C1CCOCC1 [Example 114] | 14.2 µM
57 | C[C@H](Nc1nc(=O)n([C@H](C)C(F)(F)F)c(=O)[nH]1)c1ccc(Cl)c(Cl)c1 [Example 323] | 0.71 µM
58 | CC(n1c(=O)nc(N[C@@H](C)C2CCCCC2)[nH]c1=O)C(F)(F)F (stereo partly drawn) [Example 52] | 6.14 µM
59 | Cc1ccc(F)c([C@H](C)Nc2nc(=O)n([C@@H](C3CC3)C(F)(F)F)c(=O)[nH]2)c1 [Example 312] | 1.44 µM
60 | C[C@H](Nc1nc(=O)n(CC(F)(F)F)c(=O)[nH]1)c1ccc(OC(F)(F)F)cc1 [Example 176] | 7.9 µM
61 | Cc1nccn1-c1cccc(C(C)Nc2nc(=O)n(C3CCOCC3)c(=O)[nH]2)c1 (stereo not drawn) [Example 219] | 3.38 µM
62 | Cc1cccc([C@H](Nc2nc(=O)n(C3CCOCC3)c(=O)[nH]2)C(F)F)c1 [Example 284] | 0.29 µM
63 | CC(=O)N1CCC(n2c(=O)nc(N[C@@H](C)c3cccc(C)c3)[nH]c2=O)CC1 [Example 243] | 0.88 µM
64 | COc1ccccc1[C@H](C)Nc1nc(=O)n(C2CCOCC2)c(=O)[nH]1 [Example 150] | 6.63 µM
65 | C[C@H](Nc1nc(=O)n(C2CCOCC2)c(=O)[nH]1)c1ccc(Cl)c(F)c1 [Example 166] | 5.37 µM
66 | CC(Nc1nc(=O)n(C2CCOCC2)c(=O)[nH]1)C1CCC(F)(F)CC1 (stereo not drawn) [Example 118] | 13 µM

Reference: patent US20240262804A1, “NITROGEN-CONTAINING HETEROCYCLIC KETONES, PREPARATION METHODS AND MEDICINAL USES THEREOF” (Hansoh Bio LLC, priority 2021, published 2024)
